The test system of series [1] is CC acylase N-176. In words: Substrate profile of CC acylase N-176, HPLC assay. In kind it is biochemical, Pseudomonas diminuta N-176. To be noted: percentage compared to the activity for GL-7ACA; 2 mg substrate, 20 μg enzyme, pH 9, 50° C., 2 min. The procedure:
(§1) Transformant colonies were picked up and grown overnight at 30° C. in 1 ml of 2% Bouillon (Eiken Chemical Co., Ltd., Japan) supplemented with 1 mM […] (IPTG: Sigma Chemical Co., Ltd., U.S.A.). Cells were harvested by centrifugation and resulting cell pellets were used for assay. Reaction mixture (200 μl) containing 100 mM phosphate (pH 8), 2 mg of GL-7ACA or cephalosporin C Na and cell pellets were thoroughly mixed and incubated for 10 min at 37° C. The reaction was terminated by the addition of 200 μl of 4% acetic acid. Samples were applied to a Inertsil ODS-2 column (4.6 mm×150 mm)(Gasukuro Kogyo Co., Ltd., Japan) and elution was performed with 0.567 g/l of Na2 PO4, 0.36 g/l of KH2 PO4 and 2-4% methanol. 7ACA was detected with absorption at 254 nm.
Enzyme activity was determined by HPLC assay. Reaction mixture (200 μl) containing 100 mM glycine buffer (pH 9), 2 mg of a substrate and 20 μg of the enzyme was incubated at 50° C. for 2 min and the reaction was terminated by addition of 4% acetic acid. The relative enzyme activity was expressed as a percentage compared to the activity for GL-7ACA. To be noted, acylase activity for cephalosporin C was examined also by detecting the production of α-aminoadipic acid with the amino acid analyzer (Hitachi Co., Ltd., Japan).

Series [2] has as its system CC acylase N-176. It counts as biochemical, Pseudomonas diminuta N-176. To be noted: pH 9. As to the method:
Effect of p-chloromercuribenzoate (pCMB, Sigma Chemical Co., Ltd.), phenylmethylsulfonyl fluoride (PMSF, Sigma) and ethylenediaminetetraacetic acid (EDTA, Nacalai Tesque Inc., Japan) on the activity of CC acylase N-176 was examined as follows. Four μg of CC acylase N-176 was treated at 37° C. for 4 hours with 0.1 or 1.0 mM pCMB, 0.1, 1.0, 2.0 or 5.0 mM PMSF, or 1.0 or 5.0 mM EDTA in 200 μl of 0.1M glycine buffer (pH 9). Residual activity of the treated enzyme was assayed by adding 22 μl of GL-7ACA (100 mg/ml) as a substrate to the mixture The reaction was performed at 37° C. for 2 min. Residual activity was expressed as a percentage compared to the activity of the enzyme treated with blank solution.

For series [3], the system named is CC acylase N-176. As to the kind of experiment: Determination of inhibition constants (Ki) for reaction products, GL-7ACA acylase activity. It counts as biochemical, Pseudomonas diminuta N-176. Conditions: for mode of inhibition: Lineweaver-Burk plots in absence and presence of inhibitor; for Ki: substrate GL-7ACA, 0.1M glycine buffer pH 9, 37° C., 3 min. The procedure:
Enzyme activity was assayed in the presence of 7-ACA or glutaric acid. For determination of Ki of 7-ACA, reaction mixtures (200 μl) containing 0.1M glycine buffer (pH 9), 0.26-2.08 μmole of GL-7ACA, 0.182-1.0 μmole of 7-ACA and 1 μg of enzyme was incubated at 37° C. for 3 min. For determination of Ki of glutaric acid, reaction mixture (200 μl) containing 0.1M glycine buffer (pH 9), 0.096-2.08 μmole of GL-7ACA, 0.25-0.5 μmole of glutaric acid and 0.5 μg of the enzyme was incubated at 37° C. for 3 min. […] Ki values were calculated from the apparent Michaelis constants (Kmapp), Km and Vmax.

Series [4] has as its system CC acylase N-176. As to the kind of experiment: Specific enzyme activity, HPLC assay (Vmax and Km by Lineweaver-Burk plot). In kind it is biochemical, Pseudomonas diminuta N-176. To be noted: substrate of CC acylase N-176, 100 mM glycine buffer pH 9, 37° C., 2 min; for Km: read-out: Michaelis constant (Km). As to the method: as §1
The activity of the cephalosporin C acylase was determined by HPLC assay. Reaction mixtures (200 μl) containing 100 mM glycine buffer (pH 9), 1.25-40 mM Cephalosporin C Li and 19 μg of the enzyme is used for assay of cephalosporin C acylase, meanwhile for assay of GL-7ACA acylase activity, reaction mixture (200 μl) containing 100 mM glycine buffer (pH 9), 0.48-10.4 mM GL-7ACA and 0.5 μg of the enzyme is used. Reaction mixtures were incubated for 2 min at 37° C. and the reaction was terminated by addition of 200 μl of 4% acetic acid. Conditions for HPLC were the same as those described in Example 1.3. All assays used later in this section was HPLC method. Specific enzyme activity was expressed as unit per mg of protein. Protein concentrations were determined by Bio-Rad protein assay kit (Bio-Rad Co., Ltd., U.S.A.) with bovine serum albumin as a standard. Maximum specific enzyme activity (Vmax) and Michaelis constant (Km) were calculated from slope and intersection which were obtained by Lineweaver-Burk plot (Cf. M. Dixon and E. C. Webb, Enzymes, Longmans, London, 1958). Maximum specific enzyme activity of CC acylase N-176 was 100 and 3.1 units/mg for GL-7ACA and cephalosporin C, respectively.

The next series can be described thus: Optimum pH of the enzyme. In kind it is biochemical. Conditions: 0.1M buffers pH 6-10, 37° C., 2 min. The procedure:
Reaction mixture (200 μl) containing 0.1M buffer (phosphate buffer between pH 6-8, Tris HCl buffer between pH 7-9 and glycine buffer between pH 8-10), 2 mg of GL-7ACA or 3.3 mg of cephalosporin C Li and 3 μg of the enzyme was used. The reaction was performed at 37° C. for 2 min. Optimum pH for the enzyme was 9.

Series [5] can be described thus: Determination of isoelectric point (pI) by analytical isoelectric focusing. In kind it is physicochemical. To be noted: 4% polyacrylamide gel, Ampholine pH range 3.5-10. The procedure:
Analytical isoelectric focusing of CC acylase N-176 was performed according to the method of Olson et al(Cf.FEMS Microbiol. Lett. 1, 157-162(1977)). Purified acylase preparation was applied on thin layer of 4% polyacrylamide gel containing 2% Ampholine pH range 3.5-10 (Pharmacia LKB Biotechnology, Sweden). The proteins were electrofocused for 2 hours at 100 volts using isoelectric focusing apparatus SJ-1071EC (ATTO Co., Ltd., Japan). After electrofocusing, the gel was stained with Coomassie Brilliant Blue R-250 and the isoelectric point was determined from the calibration curve made with pI markers (Pharmacia LKB Technology) which were run simultaneously with the sample. The pI value of CC acylase N-176 was estimated to be 4.5.

Series [6] in a line: Optimum temperature of the enzyme. It counts as biochemical. Conditions: 0.1M glycine buffer pH 9, 2 mg GL-7ACA, 2 min, 25° to 60° C. The procedure:
Reaction mixture (200 μl) containing 0.1M glycine buffer (pH 9), 2 mg of GL-7ACA and 2 μg of the enzyme were incubated for 2 min at various temperature from 25° to 60° C. The optimum temperature was 50° C.

[7] abbreviates: inhibitor 0.1 mM, treated at 37° C. for 4 hours, substrate GL-7ACA.
Setting [8] is: inhibitor 1.0 mM, treated at 37° C. for 4 hours, substrate GL-7ACA.

Several values for one entry are separate records, joined by “and”; a condition that tells them apart may be missing. Equal entries are not always repeated. Where two headings read alike, the source gives them in different places.

The term Ki denotes the equilibrium dissociation constant of an inhibitor or competing ligand from its target. Low readings indicate a stronger hold on the target, high ones a looser hold on the target. A word on the Km: it is the concentration of substrate that gives half-maximal velocity.

Molecule `CC(=O)OCC1=C(C(=O)O)N2C(=O)[C@@H](NC(=O)CCCCC(=O)O)[C@H]2SC1` [Adipyl 7ACA, 7(5-carboxypentanamido)-3-acetoxymethyl-3-cephem-4-carboxyli acid] registered a Relative enzyme activity with CC acylase N-176 [1] of 19%.
Regarding `O=C(O)c1cc[c]([Hg][Cl])cc1` [pCMB, p-chloromercuribenzoate], the “Residual enzyme activity (%)” value in the series with CC acylase N-176 [2] (setting [7]) came to 7.8%; in the series with CC acylase N-176 [2] (setting [8]), 4.6%.
With `O=C(O)CCCC(=O)O` [glutaric acid], in the series on CC acylase N-176 [3], the mode of inhibition result is given as “competitive” and the affinity corresponds to a Ki of 2500 µM.
The like results for `CC(=O)OCC1=C(C(=O)O)N2C(=O)[C@@H](N)[C@H]2SC1` [7-ACA, 7-aminocephalosporanic acid] were, in that order, “competitive” and 1400 µM.
On to `CC(=O)OCC1=C(C(=O)O)N2C(=O)[C@@H](NC(=O)CCCC(=O)O)[C@H]2SC1` [Glutaryl 7ACA, 7(4-carboxybutanamdio)-3-acetoxymethyl-3-cephem-4-carboxylic acid], for which, in the series on CC acylase N-176 [4], the “Maximum specific enzyme activity (Vmax)” value turned out to be 100 units/mg and the Km is 2.6 mM. In addition, the Relative enzyme activity with CC acylase N-176 [1] worked out at 100%.
On to `CC(=O)OCC1=C(C(=O)O)N2C(=O)[C@@H](NC(=O)CCC(=O)O)[C@H]2SC1` [Succinyl 7ACA, 7(3-carboxypropionamido)-3-acetoxymethyl-3-cephem-4-carboxylic acid], for which the Relative enzyme activity with CC acylase N-176 [1] is reported as 32%.
On the same count and under the same terms, for `CC(=O)OCC1=C(C(=O)O)N2C(=O)[C@@H](NC(=O)Cc3cccs3)[C@H]2SC1` [Cephalothin] the value was 0.08%.
As for `O=C(O)CN(CCN(CC(=O)O)CC(=O)O)CC(=O)O` [EDTA, ethylenediaminetetraacetic acid], the “Residual enzyme activity (%)” value in the series with CC acylase N-176 [2] was 91% and 73%.
In the case of `CC(=O)OCC1=C(C(=O)O)N2C(=O)[C@@H](NC(=O)CCC[C@@H](N)C(=O)O)[C@H]2SC1` [Cephalosporin C], in the series on CC acylase N-176 [4], the “Maximum specific enzyme activity (Vmax)” value is 3.1 units/mg and the Michaelis constant (Km) is 4.8 mM. In addition, the Relative enzyme activity with CC acylase N-176 [1] is listed as 4%.
Take `CC(=O)N[C@H](CCCC(=O)N[C@@H]1C(=O)N2C(C(=O)O)=C(COC(C)=O)CS[C@H]12)C(=O)O` [N-Acetylcephalosporin C]: in the series with CC acylase N-176 [1], the Relative enzyme activity is listed as 0.1%.
Same read-out and setting: next, `CC(=O)OCC1=C(C(=O)O)N2C(=O)[C@@H](NC(=O)CCC[C@@H](NC(=O)c3ccccc3)C(=O)O)[C@H]2SC1` [N-Benzyoylcephalosporin C, N-benzoylcephalosporin C]: 0.0003%.
As to `O=S(=O)(F)Cc1ccccc1` [PMSF, phenylmethylsulfonyl fluoride], the “Residual enzyme activity (%)” value came out at 96% in the series on CC acylase N-176 [2] (setting [7]); 91% in the series with CC acylase N-176 [2] (setting [8]); 79% in the series with CC acylase N-176 [2] (inhibitor 2.0 mM, treated at 37° C. for 4 hours, substrate GL-7ACA); 62% in the series with CC acylase N-176 [2] (inhibitor 5.0 mM, treated at 37° C. for 4 hours, substrate GL-7ACA).

B1: CC acylase N-176: new cephalosporin C acylase derived from Pseudomonas diminuta N-176, composed of α and β subunits (protein)
chain: MTMAANTDRAVLQAALPPLSGSLPIPGLSASVRVRRDAWGIPHIKASGEADAYRALGFVHSQDRLFQMELTRRKALGRAAEWLGAEAAEADILVRRLGMEKVCRRDFEALGVEAKDMLRAYVAGVNAFLASGAPLPVEYGLLGAEPEPWEPWHSIAVMRRLGLLMGSVWFKLWRMLALPVVGAANALKLRYDDGGRDLLCIPPGAEADRLEADLATLRPAVDALLKAMGGDASDAAGGGSNNWAVAPGRTATGRPILAGDPHRVFEIPGMYAQHHLACDRFDMIGLTVPGVPGFPHFAHNGKVAYCVTHAFMDIHDLYLEQFAGEGRTARFGNDFEPVAWSRDRIAVRGGADREFDIVETRHGPVIAGDPRDGAALTLRSVQFAETDLSFDCLTRMPGASTVAQLYDATRGWGLIDHNLVAGDVAGSIGHLVRARVPSRPRENGWLPVPGWSGEHEWRGWIPHEAMPRVIDPPGGIIVTANNRVVADDHPDYLCTDCHPPYRAERIMKRLVANPAFAVDDAAAIHADTLSPHVGLLRRRLEALGARDDSAAEGLRQMLVAWDGRMDAASEVASAYNAFRRALTRLVTDRSGLEQAISHPFAAVAPGVSPQGQVWWAVPTLLRDDDAGMLKGWSWDQALSEALSVASQNLTGRSWGEEHRPRFTHPLATQFPAWAGLLNPASRPIGGDGDTVLANGLVPSAGPQATYGALSRYVFDVGNWDNSRWVVFHGASGHPASAHYADQNAPWSDCAMVPMLYSWDRIAAEAVTSQELVPA
As to B1, the “Optimum pH” value in the series “Optimum pH of the enzyme” was 9. Further, the pI value in series [5] is on record as approximately 4.5. Besides, the optimum temperature in series [6] worked out at 50 °C.
